We go through 2 compounds from patent US8735412B2, “Sulfoximine-substituted anilinopyrimidine derivatives as CDK inhibitors, the production thereof, and use as medicine” (Bayer Intellectual Property GmbH, priority 2008, dated 2014).

For experiment [1], the system named is HeLa-MaTu cervical carcinoma cells. As to the kind of experiment: Proliferation assay (Assay 4), crystal violet staining. It is filed as cell-based. The conditions noted are these: Homo sapiens, 96 h, 4 days incubation; read-out: HeLa-MaTu (Assay 4) Concentration for 50% inhibition of cellular proliferation, IC50. How it is done:
10.4 Assay 4: Proliferation Assay
Cultivated human HeLa-MaTu cervical carcinoma cells (obtained from EPO-GmbH, Berlin) were plated at a density of 3000 cells/measuring point in a 96-well multititer is plate in 200 μl of growth medium (DMEM/HAMS F12, 2 mM L-glutamine, 10% fetal calf serum). After 24 hours the cells of one plate (zero-point plate) were stained with crystal violet (see below), whereas the medium of the other plates was replaced with fresh culture medium (200 μl), to which the test substances had been added at various concentrations (0 μM, and in the range 0.01-30 μM; the final concentration of the solvent dimethylsulfoxide was 0.5%). The cells were incubated for 4 days in the presence of the test substances. Cellular proliferation was determined by staining the cells with crystal violet: the cells were fixed by adding 20 μl/measuring point of an 11% glutaraldehyde solution for 15 min at room temperature. After washing the fixed cells with water three times, the plates were dried at room temperature. The cells were stained by adding 100 μl/measuring point of a 0.1% crystal violet solution (pH adjusted to pH3 by adding acetic acid). After washing the stained cells with water three times, the plates were dried at room temperature. The dye was dissolved by adding 100 μl/measuring point of a 10% acetic acid solution. The extinction was determined photometrically at a wavelength of 595 nm. The percentage change in cell growth was calculated by standardization of the measured values to the extinction values of the zero-point plate (=0%) and the extinction of the untreated (0 μM) cells (=100%). The measured data were standardized to 0% inhibition (cell proliferation without inhibitor) and 100% inhibition (zero-point plate). The IC50 values were determined by means of a 4-parameter fit using the company's own software.

For a further experiment, the target named is T1, CDK1/CycB (Homo sapiens, UniProt P06493).
T1 construct: purchased ProQinase GmbH, Freiburg; host or cells: baculovirus-infected insect cells (Sf9)
T1 sequence (P06493 whole entry): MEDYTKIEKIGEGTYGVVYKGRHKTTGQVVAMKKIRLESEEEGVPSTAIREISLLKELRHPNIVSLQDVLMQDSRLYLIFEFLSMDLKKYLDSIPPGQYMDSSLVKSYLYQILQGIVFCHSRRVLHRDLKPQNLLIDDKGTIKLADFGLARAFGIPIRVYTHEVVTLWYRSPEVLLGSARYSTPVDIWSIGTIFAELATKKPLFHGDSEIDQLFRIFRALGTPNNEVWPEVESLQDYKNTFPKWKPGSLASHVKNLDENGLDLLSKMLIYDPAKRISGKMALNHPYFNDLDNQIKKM
T1 sequence (P14635 whole entry partner): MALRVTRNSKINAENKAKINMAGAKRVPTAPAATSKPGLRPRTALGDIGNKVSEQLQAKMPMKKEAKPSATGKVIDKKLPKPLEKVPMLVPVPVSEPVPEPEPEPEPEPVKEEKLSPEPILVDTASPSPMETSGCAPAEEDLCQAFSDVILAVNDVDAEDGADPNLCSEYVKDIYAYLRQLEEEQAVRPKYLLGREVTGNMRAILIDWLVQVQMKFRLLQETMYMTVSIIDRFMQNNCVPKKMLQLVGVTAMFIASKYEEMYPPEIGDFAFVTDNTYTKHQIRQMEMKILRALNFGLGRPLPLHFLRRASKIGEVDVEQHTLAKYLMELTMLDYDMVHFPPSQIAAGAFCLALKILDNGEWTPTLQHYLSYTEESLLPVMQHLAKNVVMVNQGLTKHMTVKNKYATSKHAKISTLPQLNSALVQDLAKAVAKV
As to the kind of experiment: CDK1/CycB kinase assay (Assay 1). The experiment is classed as biochemical. Conditions: 0.5 μM ATP, histon IIIS substrate; read-out: CDK1/CycB (Assay 1) Concentration for 50% inhibition of enzyme activity, IC50. On the procedure:
10.1 Assay 1: CDK1/CycB Kinase Assay
Recombinant CDK1 and CycB-GST fusion proteins, purified from baculovirus-infected insect cells (Sf9), were purchased from ProQinase GmbH, Freiburg. The histon IIIS used as kinase substrate is commercially available from the company Sigma.
(§1) CDK1/CycB (200 ng/measuring point) was incubated for 10 min at 22° C. in the presence of various concentrations of test substances (0 μM, and within the range 0.01-100 μM) in assay buffer [50 mM Tris/HCl pH8.0, 10 mM MgCl2, 0.1 mM Na ortho-vanadate, 1.0 mM dithiothreitol, 0.5 μM adenosine triphosphate (ATP), 10 μg/measuring point histon IIIS, 0.2 μCi/measuring point ^33P-gamma ATP, 0.05% NP40, 1.25% dimethylsulfoxide]. The reaction was stopped by adding EDTA solution (250 mM, pH8.0, 15 μl/measuring point).
(§2) From each reaction mixture, 15 μl was applied to P30 filter strips (from Wallac), and unincorporated ^33P-ATP was removed by washing the filter strips three times, for 10 min each time, in 0.5% phosphoric acid. After drying the filter strips for 1 hour at 70° C., the filter strips were covered with scintillator strips (MeltiLex™ A, from Wallac) and stoved for 1 hour at 90° C. The amount of incorporated ^33P (substrate phosphorylation) was determined by scintillation measurement in a gamma-radiation measuring instrument (Wallac). The measured data were standardized to 0% inhibition (enzyme reaction without inhibitor) and 100% inhibition (all assay components except enzyme). The IC50 values were determined by means of a 4-parameter fit using the company's own software.

A further experiment has as its target T2, CDK2/CycE (Homo sapiens, UniProt P24941).
T2 construct: purchased ProQinase GmbH, Freiburg; host or cells: baculovirus-infected insect cells (Sf9)
Briefly: CDK2/CycE kinase assay (Assay 2). It is filed as biochemical. Conditions: 0.5 μM ATP, histon IIIS substrate; read-out: CDK2/CycE (Assay 2) Concentration for 50% inhibition of enzyme activity, IC50. On the procedure: 10.2 Assay 2: CDK2/CycE Kinase Assay
as §1, with “Recombinant CDK2 and CycE-GST fusion proteins, purified from baculovirus-infected insect cells (Sf9), were purchased from ProQinase GmbH, Freiburg. Histon IIIS, used as kinase substrate, was purchased from the company Sigma. CDK2/CycE (50” for “CDK1/CycB (200”
as §2

Take `C[C@@H](O)[C@@H](C)Oc1nc(Nc2ccc(S(=N)(=O)C3CC3)cc2)ncc1Br` (single isomer, unassigned) [Example V14]: the IC50 in experiment [1] was determined as 10 nM; on CDK1/CycB it was 4 nM; at CDK2/CycE, 7 nM.

With `CCS(=N)(=O)c1ccc(Nc2ncc(Br)c(N[C@H](C)[C@@H](C)O)n2)cc1` (stereo partly drawn) [Example V12], the IC50 in experiment [1] was 13 nM; at CDK1/CycB it was 3 nM; on CDK2/CycE, 3 nM.
